Data published in paper PMC8666670, “Malonyl-acyl carrier protein decarboxylase activity promotes fatty acid and cell envelope biosynthesis in Proteobacteria” (The Journal of Biological Chemistry, 2021).

Key:
MadB [1] = molecular target: T1, MadB (Shewanella oneidensis, UniProt Q8E989, D79A); test: malonyl-CoA decarboxylase assay, HPLC; format: biochemical; settings: 4 mM malonyl-CoA, 0.1 M Tris pH 7, 0.2 M NaCl, 37 °C
T1 construct: gene yiiD

MadB [2] = molecular target: T2, MadB (Shewanella oneidensis, UniProt Q8E989); test: malonyl-CoA decarboxylase assay, HPLC; format: biochemical; settings: 0.1 M Tris pH 7, 0.2 M NaCl, 37 °C; given for the Mad proteins collectively
T2 construct: gene yiiD
T2 sequence (Q8E989 1-145): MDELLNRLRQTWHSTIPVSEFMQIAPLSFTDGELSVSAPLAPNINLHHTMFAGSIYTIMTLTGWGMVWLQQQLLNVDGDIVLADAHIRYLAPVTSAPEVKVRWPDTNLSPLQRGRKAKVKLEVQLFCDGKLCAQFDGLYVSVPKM

MadB [3] = molecular target: T3, MadB (Shewanella oneidensis, UniProt Q8E989, S54A); test: malonyl-CoA decarboxylase assay, HPLC; format: biochemical; settings: 4 mM malonyl-CoA, 0.1 M Tris pH 7, 0.2 M NaCl, 37 °C
T3 construct: gene yiiD

MadA = molecular target: T4, MadA (Escherichia coli, UniProt P0ADQ2, M17A); test: malonyl-CoA decarboxylase assay, HPLC; format: biochemical; settings: 0.1 M Tris pH 7, 0.2 M NaCl, 37 °C; given for the Mad proteins collectively
T4 construct: gene fabY; full-length GNAT-hot dog protein, dimer, pET28a His-tag, M17A to remove second start site; expressed in E. coli BL21(DE3)

MadA^C = molecular target: T5, MadA^C (Escherichia coli, UniProt P0ADQ2); test: malonyl-CoA decarboxylase assay, HPLC; format: biochemical; settings: 0.1 M Tris pH 7, 0.2 M NaCl, 37 °C; given for the Mad proteins collectively
T5 construct: gene fabY; C-terminal hot dog domain, residues 171-329, His6-tag cleaved by thrombin, dimer; expressed in E. coli BL21(DE3)

GlmU = molecular target: T6, GlmU (Escherichia coli, UniProt P0ACC7); test: surface plasmon resonance, immobilised His-tagged GlmU, […] equilibrium affinity; format: binding; settings: read-out: equilibrium dissociation constant
T6 construct: full-length in pET28a, His-tag kept; expressed in E. coli BL21(DE3)
T6 sequence (P0ACC7 whole entry): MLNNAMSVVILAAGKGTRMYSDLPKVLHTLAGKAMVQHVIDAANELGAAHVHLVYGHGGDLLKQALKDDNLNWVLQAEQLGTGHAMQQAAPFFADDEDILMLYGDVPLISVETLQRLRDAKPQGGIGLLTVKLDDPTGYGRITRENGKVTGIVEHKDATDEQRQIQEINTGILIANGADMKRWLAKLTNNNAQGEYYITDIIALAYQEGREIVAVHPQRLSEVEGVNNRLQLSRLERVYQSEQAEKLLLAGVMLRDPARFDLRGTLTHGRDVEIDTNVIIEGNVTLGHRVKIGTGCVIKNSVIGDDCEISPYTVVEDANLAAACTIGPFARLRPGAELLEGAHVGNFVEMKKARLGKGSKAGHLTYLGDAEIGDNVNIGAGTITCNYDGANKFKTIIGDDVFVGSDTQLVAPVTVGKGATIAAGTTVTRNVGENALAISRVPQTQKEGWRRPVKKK

T1 sequence (Q8E989 entry or part of it D79A): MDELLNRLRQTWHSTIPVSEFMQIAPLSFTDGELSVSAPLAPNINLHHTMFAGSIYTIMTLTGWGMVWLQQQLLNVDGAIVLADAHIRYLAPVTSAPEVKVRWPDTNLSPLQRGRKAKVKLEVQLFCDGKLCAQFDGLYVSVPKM
T4 sequence (P0ADQ2 whole entry M17A): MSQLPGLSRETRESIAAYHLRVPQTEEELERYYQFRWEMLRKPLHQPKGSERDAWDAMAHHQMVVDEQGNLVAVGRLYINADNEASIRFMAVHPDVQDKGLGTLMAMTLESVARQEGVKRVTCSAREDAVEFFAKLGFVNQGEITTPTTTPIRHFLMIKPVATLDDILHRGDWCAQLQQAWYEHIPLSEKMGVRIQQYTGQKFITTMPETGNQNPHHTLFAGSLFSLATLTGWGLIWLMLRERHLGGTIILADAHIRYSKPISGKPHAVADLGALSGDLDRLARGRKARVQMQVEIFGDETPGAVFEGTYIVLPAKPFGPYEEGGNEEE
T5 sequence (P0ADQ2 171-329): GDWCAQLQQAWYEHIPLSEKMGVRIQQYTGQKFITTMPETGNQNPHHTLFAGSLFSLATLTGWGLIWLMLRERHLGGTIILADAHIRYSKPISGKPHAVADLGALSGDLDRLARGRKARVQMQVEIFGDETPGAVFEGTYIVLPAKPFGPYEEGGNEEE
T3 sequence (Q8E989 entry or part of it S54A): as the sequence (Q8E989 entry or part of it D79A) above, with S54A, A79D counted along it

Row | Structure (SMILES) | malonyl-CoA decarboxylase assay, HPLC (MadB [1]) | Km (MadB [2]) [mM] | malonyl-CoA decarboxylase assay, HPLC (MadB [3]) | Km (MadA) [mM] | Km (MadA^C) [mM] | Kd (GlmU) [µM]
1 | CC(C)(COP(=O)(O)OP(=O)(O)OC[C@H]1O[C@@H](n2cnc3c(N)ncnc32)[C@H](O)[C@@H]1OP(=O)(O)O)[C@@H](O)C(=O)NCCC(=O)NCCSC(=O)CC(=O)O [malonyl-CoA] | The MadB(S54A) and MadB(D79A) mutants had nearly normal malonyl-CoA decarboxylase activity | > 5 | The MadB(S54A) and MadB(D79A) mutants had nearly normal malonyl-CoA decarboxylase activity | > 5 | > 5 | 
2 | CC(=O)SCCNC(=O)CCNC(=O)[C@H](O)C(C)(C)COP(=O)(O)OP(=O)(O)OC[C@H]1O[C@@H](n2cnc3c(N)ncnc32)[C@H](O)[C@@H]1OP(=O)(O)O [acetyl-CoA] |  |  |  |  |  | 967 ± 48.3
